Test results: patent publication US20140249143A1, “Compounds And Methods For Enhancing Innate Immune Responses” (GlaxoSmithKline LLC, priority 2011, published 2014)

How the values were obtained:
[1] = tested on: interferon stimulated genes (ISGs); assay: Expression of interferon stimulated genes in HCV replicon cells (real time RT-PCR); format: cell-based; details: Example 1 2 μM, IFNα 100 U/ml
Description: The up-regulation of interferon stimulated genes upon treatment with Example 1 was monitored by quantitative real time RT-PCR using specific primers for each gene, as shown in FIG. 3. […] Total RNA was isolated using RNeasy 96 kit (Qiagen) and converted to cDNA using High Capacity cDNA reverse transcription kit (Applied Biosystems). For real time PCR, the cDNA was used for PCR reactions using TaqMan Fast Universal PCR master mix (Applied Biosystems) and specific primers (Applied Biosystems). As housekeeping genes, actin and GAPDH were used for normalization. Data was calculated by the ΔΔCt method and fold change determined compared to DMSO-treated control samples.

[2] = tested on: reconstructed human epidermis (RHE) keratinocytes; assay: JAK/STAT induction in reconstructed human epidermis (western blot, real-time PCR); format: cell-based; details: 10 μM (IFN-alpha 100 U/mL), 6 and 72 hrs
Experimental: First, reconstructed human epidermis (“RHE”) consisting of cultured human keratinocyte cells were incubated in triplicate with media containing either the media alone, media+0.1% DMSO, media containing 10 μM of several putative JAK/STAT activator compounds described herein in Tables 1 and 2 (Example 1, Example 2, Example 11, and compound no. 89 (as a negative control)), or media containing 100 U/mL of a positive control Interferon-alpha (IFN-alpha) recombinant protein at 37° C. in a humidified atmosphere containing 5% CO2, for 6 and 72 hours.
At the end of the incubation period, the RHE tissues were cut into two sections. One section was ¼ of the total size and the second section was […].

[3] = tested on: respiratory syncytial virus (RSV); assay: RSV plaque assay on HEp-2 cells; format: cell-based; details: 1000 U/ml
Experimental: A broad spectrum of antiviral activity of Example 1 was accessed by testing it for potency against other viruses. (See FIG. 8). […] RSV (long form) was inoculated on the layer of HEp-2 cells at multiplicity of infection of <0.001. After 4 hour post infection, the inoculum was replaced with 0.3% agarose containing MEM and various concentration of Example 1 or IFNα. The cells were incubated for up to 5-6 days until the plaques were visible. The cells were then fixed with 3% formaldehyde and stained with neutral red for visualization.

STAT1 phosphorylation = STAT1 phosphorylation immunoblot in HCV replicon cells; format: cell-based; details: IFNα 100 U/ml
Experimental: IFNα (100 U/ml) and DMSO were included as controls. The total cell lysates were analyzed on a 4-20% SDS-PAGE gradient gel and followed by immunoblotting using anti-phopho STAT1 antibody (Cell Signaling). The level of actin was monitored as a loading control. The bands were visualized by the alkaline phosphatase activity conjugated with the secondary antibody (Promega) using ProtoBlot II AP System™ (Promega).

human JAK1 = target: T1, human JAK1 (Homo sapiens, UniProt P23458); assay: JAK1 reconstitution in U4A and 2fGH cells (phosphor-STAT1 western blot, Taqman mRNA); format: cell-based; details: Example 1 10 μM, IFNα 100 U/ml
T1 construct: expressed in transfected cells; host or cells: U4A cells (JAK1-deficient derivative of the human fibroblast line 2fGH), transduced with a baculovirus mammalian expression system
Experimental: 2fGH and U4A cells were obtained from the Cleveland Clinic. 2fGH is a human fibroblast cell line and U4A cell line is a derivative 2fGH harboring a defect in JAK1 expression (Muller, et al., Nature 366, 129-135 (1993)). Green fluoroscent protein (GFP) or human JAK1 was transduced in U4A cells by baculovirus mammalian expression system. After 24 hours post transduction, the cells were treated with DMSO, Example 1 (10 μM), IFNα (100 U/ml), IFNβ (100 U/ml), or IFNγ (100 U/ml). Untransduced U4A cells and 2fGH cells were included as controls for 6 or 18 hours. The cells were harvested at indicated time points and used for detecting phosphor-STAT1 by western blot (FIG. 10, panel A) or for mRNA analysis by Taqman quantitation (FIG. 10, panel B).
The total cell lysates were analyzed on a 4-20% SDS-PAGE gradient gel and followed by immunoblotting using anti-phopho STAT1 antibody (Cell Signaling). The level of actin was monitored as a loading control. The bands were visualized by the alkaline phosphatase activity conjugated with the secondary antibody (Promega) using ProtoBlot II AP system (Promega).
Gene expression was measured using TaqMan Fast Universal PCR Master Mix (Applied Biosystems) and gene specific probes and murine primers in HT7900 FAST System (Invitrogen). As housekeeping genes, actin and GAPDH were used for normalization. Data was calculated by the ΔΔCt method and fold change determined compared to non-treated control samples.

JAK/STAT = JAK/STAT activator assay; format: cell-based
[4] = tested on: HCV genotype 1b subgenomic replicon; assay: Anti-Hepatitis C replicon assay, genotype 1b (luciferase); format: cell-based; details: Hepatitis C virus; luciferase activity measured 48 hours later; read-out: HCV Genotype 1B Replicon pEC50 (converted)
Experimental: (§1) Compounds were assayed for activity against HCV using the genotype 1a and 1b subgenomic replicon model systems. Stable cell lines bearing the genotype 1a and 1b replicons were used for screening of compounds. Both replicons are bicistonic and contain the firefly luciferase gene. The ET cell line is stably transfected with RNA transcripts harboring a I389luc-ubi-neo/NS3-3′/ET replicon with firefly luciferase-ubiquitin-neomycin phosphotransferase fusion protein and EMCV-IRES driven NS3-5B polyprotein containing the cell culture adaptive mutations (E1202G; T1280I; K1846T) (Krieger at al, 2001 and unpublished). The genotype 1a replicon is a stable cell line licensed from Apath LLC, modified to contain the firefly luciferase gene. The cells were grown in DMEM, supplemented with 10% fetal calf serum, 2 mM Glutamine, Penicillin (100 IU/mL)/Streptomycin (100 μg/mL), 1× nonessential amino acids, and 250-500 μg/mL G418 (“Geneticin”). They were all available through Life Technologies (Bethesda, Md.). The cells were plated at 0.5×10^4 cells/well in 384 well plates containing compounds. The final concentration of compounds ranged between 0.03 pM to 50 μm and the final DMSO concentration of 0.5-1%.
(§2) Luciferase activity was measured 48 hours later by adding a Steady glo (Promega, Madison, Wis.). Percent inhibition of replication data was plotted relative to no compound control. Under the same condition, cytotoxicity of the compounds was determined using cell titer glo (Promega, Madison, Wis.). IC50s were determined from a 10 point dose response curve using 3-4-fold serial dilution for each compound, which spans a concentration range>1000 fold. BioAssay determines the level of inhibition for each compound by normalizing cross-talk corrected plate values against the negative (low or background, cells with no compound present) and positive (high DMSO, no cells) controls to determine Percent Inhibition:
(§3) These normalized values are exported to IC50 where they are plotted against the molar compound concentrations using the standard four parameter logistic equation: […]

ISGs and cytokines mRNA [5] = assay: Dose response of ISG induction in vivo; parameters: species or system CD-1 mice; details: 0, 200, 600, 1000 mg/kg oral gavage, 24 h, blood and tissues
Experimental: Naive male CD-1 mice were obtained from Charles Rivers Laboratories (Wilmington, Mass.) and administered with Example 11 in a dose response (0, 200, 600, and 1000 mg/kg; three mice per dose group) by oral gavage. The dose of 200 mg/kg was in 0.5% HPMC/0.1% Tween 80 whereas the rest of doses were in 30% solutol/70% PEG400. At 24 h, the blood and tissues were collected and processed as described above. The gene expressions of various ISGs and cytokines were monitored by real time RT-PCR (see above for the details).

[6] = tested on: ISG56 (Interferon-Stimulated Gene 56) promoter ISRE; assay: ISG56 luciferase reporter assay in HEK 293 cells; format: cell-based; details: Homo sapiens, HEK293; HEK 293 reporter, 24 hours; 100% = small molecule control test compound; read-out: ISG56 (Average Max Response) %
Experimental: Compounds of the present invention were tested against a HEK (Human Embryonic Kidney) 293 cell line that was stably transfected with a firefly luciferase reporter gene under the control of the ISG56 (Interferon-Stimulated Gene 56) promoter ISRE (Interferon-Stimulated Response Element). While the ISRE is in the opposite orientation of the wild type promoter, literature^1 cites that the response elements are pallindromic and function properly in either orientation. ^1Reich, N., Evans, B., Levy, D., Fahey, D., Knight, E., Damell, J. E. (1987) Interferon-induced transcription of a gene encoding a 15-kDa protein depends on an upstream enhancer element. See, Proc. Natl. Acad. Sci. 84, (6394-6398).
In preparation for the assay, test compounds were serially diluted 3-fold in DMSO from a typical top concentration of 5 mM and plated at 0.2 μL in a 384-well, polystyrene, tissue culture treated plate with lid (Greiner Bio-One North America, Inc., Monroe, N.C.) to generate 11-point dose response curves in the assay. Low control wells (0% response) contained 0.2 μL of DMSO alone, and high control wells (100% response) contained 0.2 μL of a small molecule control test compound.
Frozen stocks of the transfected HEK 293 cells were washed and recovered in DMEM I Ham's F-12 media (Invitrogen Corporation, Carlsbad, Calif.) supplemented with 10% v/v qualified Australian fetal bovine serum (FBS) (Invitrogen Corporation, Carlsbad, Calif.), 1× GlutaMAX™ (Invitrogen Corporation, Carlsbad, Calif.), 1×MEM non-essential amino acids (NEAA) (Invitrogen Corporation, Carlsbad, Calif.) and 500 μg/ml Geneticin® (Invitrogen Corporation, Carlsbad, Calif.). The cells were diluted to 500,000 cells/mL in the supplemented DMEM/Ham's F-12 media, and 20 μL of the cell suspension were added to each well of the previously prepared 384-well compound plate, resulting in 10,000 cells/well. The plate, with lid, were placed in a 37° C., 5% CO2 humidified incubator for 24 hours.
Following incubation, the plates were removed and placed on the bench top without lids to equilibrate to room temperature for 30 minutes. Steady-Glo® (Promega Corporation, Madison, Wis.) was prepared according to the manufacturer's instructions, and 10 μL were added to each plate well. After a twenty minute incubation at room temperature, luminescence was read on a ViewLux™ (PerkinElmer Inc., Waltham, Mass.).
The data for dose responses were plotted as % activation versus compound concentration following normalization using the formula 100*((U−C1)/(C2−C1)), where U was the unknown value, C1 was the average of the low (0% response) control wells and C2 was the average of the high (100% response) control wells. Curve fitting was performed with the equation y=A+((B−A)/(1+(10^x/10^C)^D)), where A was the minimum response, B was the maximum response, C was the log(EC50) and D was the Hill slope. The results for each test compound were recorded as pEC50 values (—C in the above equation) and as max response values at a given concentration.

[7] = tested on: HCV genotype 1a subgenomic replicon; assay: Anti-Hepatitis C replicon assay, genotype 1a (luciferase); format: cell-based; details: Hepatitis C virus; luciferase activity measured 48 hours later; read-out: HCV Genotype 1A Replicon pEC50 (converted)
Experimental: as §1, §2, §3

ISGs and cytokines mRNA [8] = assay: Induction of ISGs in mice in vivo; parameters: species or system Balb/c mice; details: Example 1 oral 300 mg/kg; murine IFNα2 30 ug/kg intravenously
Experimental: Naive Balb/c mice were purchased from Charles River Laboratories (Wilmington, Mass.) and administered with murine IFNα2 (30 ug/kg) intravenously or administered with oral Example 1 (300 mg/kg in 30/70% solutol/polyethylene glycol 400). The mice were then euthanized by CO2 inhalation at 0.5, 2, 6, 8, and 24 hours for sample collection. Four mice per dose group were tested.
For RNA isolation, the blood was collected in an RNAprotect™ tube (Qiagen) and processed with RNeasy Protect™ animal blood kit (Qiagen) according to the manufacturer's protocol. To preserve RNA, 30-200 mg of tissue pieces were stored in RNAlater™ solution (Invitrogen) until use. For RNA isolation, the thawed tissues were homogenized using a TissueLyser™ system (Qiagen) and processed with RNeasy 96 Universal Tissue Kit™ (Qiagen) according to the manufacturer's protocol. To remove DNA contamination, on-plate DNase digestion was included during the RNA purification.
For real time RT-PCR, cDNA was made using High Capacity cDNA Reverse Transcription Kit™ (Applied Biosystems). Gene expression was measured using TaqMan Fast Universal PCR Master Mix™ (Applied Biosystems) and gene specific probes and murine primers in HT7900 FAST System™ (Invitrogen). As housekeeping genes, actin and GAPDH were used for normalization. Data was calculated by the ΔΔCt method and fold change determined compared to non-treated control samples.

T1 sequence (P23458 whole entry): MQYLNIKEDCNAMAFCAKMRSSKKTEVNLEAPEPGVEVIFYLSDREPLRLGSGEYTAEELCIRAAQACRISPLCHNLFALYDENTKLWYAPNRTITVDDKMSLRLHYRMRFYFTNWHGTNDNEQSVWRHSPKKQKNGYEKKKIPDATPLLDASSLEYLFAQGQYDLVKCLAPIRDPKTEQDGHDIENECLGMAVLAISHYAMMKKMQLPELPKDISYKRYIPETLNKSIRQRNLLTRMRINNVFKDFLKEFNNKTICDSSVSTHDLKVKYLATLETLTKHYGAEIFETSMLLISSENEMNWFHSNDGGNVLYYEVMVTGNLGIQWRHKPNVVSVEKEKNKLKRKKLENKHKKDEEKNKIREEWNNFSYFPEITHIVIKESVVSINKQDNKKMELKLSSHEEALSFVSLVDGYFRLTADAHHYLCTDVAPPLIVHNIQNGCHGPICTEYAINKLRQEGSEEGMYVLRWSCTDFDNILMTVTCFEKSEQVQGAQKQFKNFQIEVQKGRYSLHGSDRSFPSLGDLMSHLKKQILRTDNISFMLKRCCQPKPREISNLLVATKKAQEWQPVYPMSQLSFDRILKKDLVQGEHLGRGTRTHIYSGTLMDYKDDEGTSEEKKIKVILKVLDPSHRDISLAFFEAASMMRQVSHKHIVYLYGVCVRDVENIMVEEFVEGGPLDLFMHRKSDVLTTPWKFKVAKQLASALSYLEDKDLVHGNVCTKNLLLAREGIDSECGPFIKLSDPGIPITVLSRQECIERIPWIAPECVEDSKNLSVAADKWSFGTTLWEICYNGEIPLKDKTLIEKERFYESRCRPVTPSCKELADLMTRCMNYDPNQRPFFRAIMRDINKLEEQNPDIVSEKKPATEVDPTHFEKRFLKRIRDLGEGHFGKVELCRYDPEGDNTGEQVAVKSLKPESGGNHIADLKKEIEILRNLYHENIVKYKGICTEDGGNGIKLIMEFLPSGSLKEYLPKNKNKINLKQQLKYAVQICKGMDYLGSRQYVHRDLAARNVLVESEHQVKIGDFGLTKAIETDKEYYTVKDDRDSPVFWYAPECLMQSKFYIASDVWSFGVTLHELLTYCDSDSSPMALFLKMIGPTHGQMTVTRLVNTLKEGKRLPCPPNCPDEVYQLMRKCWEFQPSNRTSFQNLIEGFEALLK

**Q.** IFNα was tested. Which “time of maximum induction of ISGs” value [1] did it give?
**A.** 4 h

**Q.** And the “Stat1 phosphorylation (western blot)” value [2]?
**A.** Stat1 phosphorylation

**Q.** What about the RSV plaques [3] of the same molecule?
**A.** significantly reduced the number and size of the plaques

**Q.** What about the STAT1 phosphorylation (STAT1 phosphorylation; Example 1 2 uM, 1 h, 6 h, 24 h) of the same molecule?
**A.** induced STAT1 phosphorylation

**Q.** What about the “time at which phosphorylated STAT1 peaked” value (STAT1 phosphorylation) of the same molecule?
**A.** 1 h

**Q.** And the “activation of STAT1 in U4A cells transduced with JAK1” value (human JAK1)?
**A.** activation of STAT1 was observed

**Q.** What about the “p-STAT1 in U4A cells (JAK1 deficient) transduced with GFP” value (human JAK1) of the same molecule?
**A.** not present

**Q.** FC(F)(F)c1cc(C(F)(F)F)c2ccc3nc(-c4nncs4)cn3c2n1 [Compound 89] was tested. Which “Stat1 phosphorylation (western blot)” value [2] did it give?
**A.** did not show phosphorylation of Stat1

**Q.** And the “result in the JAK/STAT activator assay” value (JAK/STAT)?
**A.** negative

**Q.** How did the EC50 [4] turn out when FC(F)(F)c1nc(C(F)(F)F)c2ccc3nc(-c4nnco4)cn3c2n1 [Compound 11, 4-(1,3,4-oxadiazol-2-yl)-10,12-bis(trifluoromethyl)-2,5,11,13-tetraazatricyclo[7.4.0.0^2,^6]trideca-1(9),3,5,7,10,12-hexaene] was run?
**A.** 794 nM

**Q.** What about the “Stat1 phosphorylation (western blot)” value [2] of the same molecule?
**A.** Stat1 phosphorylation

**Q.** What about the “induction of ISG in dose response” value (ISGs and cytokines mRNA [5]) of the same molecule?
**A.** correlated with given doses in all tissues

**Q.** What about the Emax [6] of the same molecule?
**A.** 293%

**Q.** What about the EC50 [7] of the same molecule?
**A.** 251 nM

B1: murine IFNα: murine IFNα2 administered intravenously to mice (30 ug/kg) as comparator (protein, UniProt P01573 24-190, looked up)
Interferon alpha-2: CDLPHTYNLRNKRALKVLAQMRRLPFLSCLKDRQDFGFPLEKVDNQQIQKAQAIPVLRDLTQQTLNLFTSKASSAAWNATLLDSFCNDLHQQLNDLQTCLMQQVGVQEPPLTQEDALLAVRKYFHRITVYLREKKHSPCAWEVVRAEVWRALSSSVNLLPRLSEEKE
**Q.** Which “up-regulation of ISGs at 24 hours” value (ISGs and cytokines mRNA [8]) does the source give for B1 here?
**A.** evidently diminished
